Measurements as given in patent publication US12617762B2, “Carboxy derivatives with antiinflamatory properties” (Sitryx Therapeutics Limited, priority 2019, dated 2026).

How the values were obtained:
[1] = test system: IL-1β cytokine output from THP-1s; test: THP-1 AlphaLISA IL-1β cytokine inhibition assay; type: cell-based; details: Homo sapiens, THP-1, differentiated THP-1 cells, LPS then nigericin
Description: Measuring Inhibitory Effects on IL-1β Cytokine Output from THP-1s
The cytokine inhibition profiles of compounds of formula (I) were determined in a differentiated THP-1 cell assay. All assays were performed in RPMI-1640 growth medium (Gibco), supplemented with 10% fetal bovine serum (FBS; Gibco), 1% penicillin-streptomycin and 1% sodium pyruvate unless specified otherwise. The IL-1β cytokine inhibition assay was run in a background of differentiated THP-1 cells as described below. All reagents described were from Sigma-Aldrich unless specified otherwise. Compounds were prepared as 10 mM DMSO stocks.
THP-1 cells were expanded as a suspension up to 80% confluence in appropriate growth medium. Cells were harvested, suspended, and treated with an appropriate concentration of phorbol 12-myristate 13-acetate (PMA) over a 72 hr period (37° C./5% CO2).
Following 72 hrs of THP-1 cell incubation, cellular medium was removed and replaced with fresh growth media containing 1% of FBS. Working concentrations of compounds were prepared separately in 10% FBS treated growth medium and pre-incubated with the cells for 30 minutes (37° C./5% CO2). Following the 30 minute compound pre-incubation, THP-1s were treated with an appropriate concentration of LPS and the cells were subsequently incubated for a 24 hr period (37° C./5% CO2). An appropriate final concentration of Nigericin was then dispensed into the THP-1 plates and incubated for 1 hour (37° C./5% CO2) before THP-1 supernatants were harvested and collected in separate polypropylene 96-well holding plates.
Reagents from an IL-1β and IL-6 commercial kit (Perkin Elmer) were prepared and run according to the manufacturer's instructions. Subsequently, fluorescence signal detection in a microplate reader was measured (EnVision® Multilabel Reader, Perkin Elmer).
Percentage inhibition was calculated per cytokine by normalising the sample data to the high and low controls used within each plate (+/− LPS respectively).

[2] = Hepatocyte stability assay, mouse; type: in vitro ADME; details: mouse, hepatocytes; for hepatocyte CLint at 10 μM: Hepatocyte stability Clint; for half-life at 10 μM: Hepatocyte stability T½
Text: (§1) Defrosted cryo-preserved hepatocytes (viability >70%) were used to determine the metabolic stability of a compound via calculation of intrinsic clearance (CIint; a measure of the removal of a compound from the liver in the absence of blood flow and cell binding). Clearance data are particularly important for in vitro work as they can be used in combination with in vivo data to predict the half-life and oral bioavailability of a drug.
(§2) The metabolic stability in hepatocytes assay involves a time-dependent reaction using both positive and negative controls. The cells were pre-incubated at 37° C. then spiked with test compound (and positive control); samples were taken at pre-determined time intervals and were analysed to monitor the change in concentration of the initial drug compound over 60 minutes. A buffer incubation reaction (with no hepatocytes present) acted as a negative control and two cocktail solutions, containing compounds with known high and low clearance values (verapamil/7-hydroxycoumarin and propranolol/diltiazem), acted as positive controls. • 1. The assay was run with a cell concentration of 0.5×10^6 cells/mL in Leibovitz buffer. • 2. All compounds and controls were run in duplicate. • 3. Compound concentration was 10 μM. • 4. All compounds and controls were incubated with both cells and buffer to show turnover was due to hepatic metabolism. • 5. All wells on the incubation plate had 326.7 μL of either cells or buffer added. • 6. Prior to assay, cell and buffer-only incubation plates were preincubated for 10 mins at 37° C. • 7. The assay was initiated by adding compounds, 3.3 μL of 1 mM in 10% DMSO—90% Buffer; final DMSO concentration was 0.1%. • 8. Samples were taken at regular timepoints (0, 5, 10, 20, 40, 60 min) until 60 mins. • 9. Sample volume was 40 μL and was added to 160 μL of crash solvent (acetonitrile with internal standard) and stored on ice. • 10. At the end of the assay, the crash plates were centrifuged at 3500 rpm for 20 mins at 4° C. • 11. 80 μL of clear supernatant was removed and mixed with 80 μL of deionised water before being analysed by LC-MS/MS.
(§3) Raw LC-MS/MS data was exported to, and analysed in, Microsoft Excel for determination of intrinsic clearance. The percentage remaining of a compound was monitored using the peak area of the initial concentration as 100%. Intrinsic clearance and half-life values were calculated using a graph of the natural log of percentage remaining versus the time of reaction in minutes.

[3] = Hepatocyte stability assay, human; type: in vitro ADME; details: human, hepatocytes; for hepatocyte CLint at 10 μM: Hepatocyte stability Clint; for half-life at 10 μM: Hepatocyte stability T½
Text: as §1, §2, §3

| SMILES | IC50 [1] [µM] | hepatocyte CLint at 10 μM [2] [µL/min/1e6 cells] | half-life at 10 μM [2] [min] | hepatocyte CLint at 10 μM [3] [µL/min/1e6 cells] | half-life at 10 μM [3] [min] |
| --- | --- | --- | --- | --- | --- |
| C=C(Cc1nc(-c2ccc(C(F)(F)CCC)cc2)no1)C(=O)O [Example 98, 2-((3-(4-(1,1-difluorobutyl)phenyl)-1,2,4-oxadiazol-5-yl)methyl)acrylic acid] | 37.2 | 208 | 6 | 70 | 23 |
| C=C(Cc1nc(-c2ccc(OCc3ccccc3)cc2)no1)C(=O)O [Example 100, 2-((3-(4-(benzyloxy)phenyl)-1,2,4-oxadiazol-5-yl)methyl)acrylic acid] | 25.8 | > 460 | < 3 | 77 | 19 |
| C=C(Cc1nc(C2(c3ccc(OC4CCC4)cc3)CC2)no1)C(=O)O [Example 111, 2-((3-(1-(4-cyclobutoxyphenyl)cyclopropyl)-1,2,4-oxadiazol-5-yl)methyl)acrylic acid] | 31.4 | 382 | 3 | 23 | 71 |
| C=C(Cc1nc(C2(c3ccc(I)cc3)CC2)no1)C(=O)O [Example 117, 2-((3-(1-(4-iodophenyl)cyclopropyl)-1,2,4-oxadiazol-5-yl)methyl)acrylic acid] | 3.4 | 183 | 7 | 36 | 43 |
| C=C(Cc1nc(-c2cccc(CCCC)c2)no1)C(=O)O [Example 27, 2-((3-(3-butylphenyl)-1,2,4-oxadiazol-5-yl)methyl)acrylic acid] | 29.6 | 281 | 5 | 156 | 8 |
| C=C(Cc1nc(C(F)(F)c2cc(Cl)c(F)c(Cl)c2)no1)C(=O)O [Example 153, 2-((3-((3,5-dichloro-4-fluorophenyl)difluoromethyl)-1,2,4-oxadiazol-5-yl)methyl)acrylic acid] | 17.3 | 44 | 34 | 23 | 62 |
| C=C(Cc1nc(CCCCCCCC)cs1)C(=O)O [Example 38, 2-((4-octylthiazol-2-yl)methyl)acrylic acid] | 7.8 | 204 | 9 | > 447 | < 3 |
| C=C(Cc1nc(C(F)(F)c2ccc(S(F)(F)(F)(F)F)cc2)no1)C(=O)O [Example 124, 2-((3-(difluoro(4-(pentafluoro-λ^6-sulfaneyl)phenyl)methyl)-1,2,4-oxadiazol-5-yl)methyl)acrylic acid] | 16.6 | 55 | 27 | 14 | 105 |

More lines, now with the values ahead:

| IC50 [1] [µM] | hepatocyte CLint at 10 μM [2] [µL/min/1e6 cells] | half-life at 10 μM [2] [min] | hepatocyte CLint at 10 μM [3] [µL/min/1e6 cells] | half-life at 10 μM [3] [min] | SMILES |
| --- | --- | --- | --- | --- | --- |
| 27.9 | 290 | 5 | 60 | 25 | C=C(Cc1ccc(CCCCCCCC)nn1)C(=O)O [Example 116] |
| 20.1 | > 460 | < 3 | 290 | 5 | C=C(Cc1cnc(CCCCCCCC)cn1)C(=O)O [Example 113] |
| 7.9 | 87 | 15 | 28 | 55 | C=C(Cc1nc(C2(c3ccc(C4CCCC4)cc3)CC2)no1)C(=O)O [Example 115] |
| 22.1 | 79 | 15 | 13 | 125 | C=C(Cc1noc(C(F)(F)c2ccc(C(F)(F)F)cc2)n1)C(=O)O [Example 97, 2-((5-(difluoro(4-(trifluoromethyl)phenyl)methyl)-1,2,4-oxadiazol-3-yl)methyl)acrylic acid] |
| 14.6 | 478 | 3 | 245 | 6 | C=C(Cc1nc(Cc2ccc(CCCC)cc2)co1)C(=O)O [Example 127, 2-((4-(4-butylbenzyl)oxazol-2-yl)methyl)acrylic acid] |
| 22.7 | 105 | 19 | 53 | 23 | C=C(Cc1nc(C(F)(F)c2ccc(C)c(Cl)c2)no1)C(=O)O [Example 151, 2-((3-((3-chloro-4-methylphenyl)difluoromethyl)-1,2,4-oxadiazol-5-yl)methyl)acrylic acid] |
| 9.5 | 203 | 7 | 41 | 35 | C=C(Cc1nc(C(F)(F)c2ccc(Br)c(Cl)c2)no1)C(=O)O [Example 154, 2-((3-((4-bromo-3-chlorophenyl)difluoromethyl)-1,2,4-oxadiazol-5-yl)methyl)acrylic acid] |
| 7.9 | 139 | 11 | 34 | 43 | C=C(Cc1nc(C2(c3ccc(C4CCC4)cc3)CC2)no1)C(=O)O [Example 131, 2-((3-(1-(4-cyclobutylphenyl)cyclopropyl)-1,2,4-oxadiazol-5-yl)methyl)acrylic acid] |
| 29.9 | > 460 | < 3 | 67 | 22 | C=C(Cc1nc(Cc2ccc(C3(CCC)CC3)cc2)no1)C(=O)O [Example 147, 2-((3-(4-(1-propylcyclopropyl)benzyl)-1,2,4-oxadiazol-5-yl)methyl)acrylic acid] |
| 3 | > 460 | < 3 | 96 | 15 | C=C(Cc1nc(C2(c3ccc(Br)c(Cl)c3)CC2)no1)C(=O)O [Example 138, 2-((3-(1-(4-bromo-3-chlorophenyl)cyclopropyl)-1,2,4-oxadiazol-5-yl)methyl)acrylic acid] |
| 15.8 | 17 | 75 | 13 | 112 | C=C(Cc1nc(Cc2cc(Cl)c(F)c(Cl)c2)no1)C(=O)O [Example 134, 2-((3-(3,5-dichloro-4-fluorobenzyl)-1,2,4-oxadiazol-5-yl)methyl)acrylic acid] |
